# Experiments:
# Wild-type mice = test: Audiogenic seizure test in wild-type mice; type: in vivo, mouse; conditions: 2 mg/kg intraperitoneally twice a day for 6 weeks
# Procedure: [The source words this procedure for another variant and reports this variant under the same test.] (§1) Male Fmr1 C57BL/6J knock-out mice derived from the early group imported from Jackson Laboratories were used in the experiments. The experimental animals were raised in a light-controlled environment (illuminated for 12 hours/nonilluminated for 12 hours) and maintained at a temperature of 21° C.±2° C. and a relative humidity of about 55%±5%. Food and water were ad libitum fed. An anticonvulsant efficacy experiment on audiogenic seizure, a contextual fear conditioning experiment, an open field test, and a marble burying test in the Fmr1 gene knockout mouse model was performed by Fragile X Syndrome Drug Validation Initiative (FRAXA-DVI). The mice were randomly divided into groups and the test was performed under illumination.
# (§2) The test compound was dissolved in 10% DMSO (dimethylsulfoxide)+30% PEG 300 in DW (distilled water), and administered intraperitoneally at a dose of 2 mg/kg twice a day for 6 weeks. To a control group, vehicle (10% DMSO (dimethylsulfoxide)+30% PEG 300 in DW (distilled water)) was administered.
# (§3) Ten mice per group were used.
# (§4) After the vehicle or test compound was administered intraperitoneally at a dose of 2 mg/kg twice a day for 6 weeks, the mice were placed in a chamber and exposed to an alarm. The response of the mice during the test was evaluated numerically by the following criteria according to the intensity of seizure, and the survival rate was also observed.
# (§5) 1: Wild running and jumping
# [1] = test system: Fmr1 gene knockout mouse model; test: Audiogenic seizure test, anticonvulsant efficacy; type: in vivo; conditions: Fmr1 gene knockout mice, 2 mg/kg intraperitoneally twice a day for 6 weeks
# From the text: (§6) An Fmr1 gene knockout mouse model was used as an animal model of fragile X syndrome. This model lacks FMRP protein due to disruption of the Fmr1 gene. Typical phenotypes of this mouse model include audiogenic seizure, hyperlocomotor activity, cognitive deficit, concentration deficit disorder, and the like.
# as §1, §2, §3, §4, §5
# [2] = test system: Fmr1 gene knockout mouse model; test: Open field test; type: in vivo; conditions: Fmr1 gene knockout mice; 2 mg/kg intraperitoneally twice a day for 6 weeks; versus wild-type mice, P value of 0.0001 or less
# From the text: as §6
# Male Fmr1 C57BL/6J knock-out mice derived from the early group imported from Jackson Laboratories were used in the experiments. The experimental animals were raised in a light-controlled environment (illuminated for 12 hours/nonilluminated for 12 hours) and maintained at a temperature of 21° C.±2° C. and a relative humidity of about 55%±5%. Food and water were ad libitum fed. […]
# After the vehicle or test compound was administered intraperitoneally at a dose of 2 mg/kg twice a day for 6 weeks, an open field test was performed to observe the efficacy behavior of mice who fearlessly stepped out to the center of the open field. […] The number of times the mouse crossed the center of the open field was measured by the breakage of the horizontal beam due to the mouse's movement. […]
# (§7) After data analysis by ANOVA, the effect was defined as significant when p<0.05. All results were expressed as mean±SEM.
# [3] = test system: Fmr1 gene knockout mouse model; test: Marble burying test; type: in vivo; conditions: Fmr1 gene knockout mice; 2 mg/kg intraperitoneally twice a day for 6 weeks; versus vehicle-administered knockout group
# From the text: as §6
# as §1, with “The mice were randomly divided into groups and the test was performed under illumination.” left out
# After the vehicle or test compound was administered intraperitoneally at a dose of 2 mg/kg twice a day for 6 weeks, a hippocampal function-dependent marble burying test was performed. […] The mouse was placed and left for 30 minutes, then the number of marbles buried by the mouse was counted.
# as §7
# [4] = test system: Fmr1 gene knockout mouse model; test: Contextual fear conditioning experiment; type: in vivo; conditions: Fmr1 gene knockout mice; 2 mg/kg intraperitoneally twice a day for 6 weeks; versus vehicle-administered knockout group
# From the text: as §6, §1
# The test compound was dissolved in 10% DMSO (dimethylsulfoxide)+30% PEG 300 in DW (distilled water), and administered intraperitoneally at a dose of 2 mg/kg twice a day for 6 weeks. […]
# as §7
compound,measurement,setting,value
"Fc1ccc(-c2cnc3nc(COc4ccccn4)cn3c2)c(C(F)(F)F)c1 [test compound, 6-[4-fluoro-2-(trifluoromethyl)phenyl]-2-(2-pyridyloxymethyl)imidazo[1,2-a]pyrimidine]",Audiogenic seizure phenotype,Wild-type mice,no mice showed audiogenic seizure phenotype
same,Seizures of 3 or more points,Wild-type mice; mice affected/mice in group,0/10
same,Wild running,Wild-type mice; mice affected/mice in group,0/10
same,Vulnerability to audiogenic seizure,Wild-type mice; proportion of wild running mice,0%
same,Survival rate,Wild-type mice; survivors/mice in group,10/10
same,Seizures of 3 or more points,[1]; mice affected/mice in group,5/10
same,Wild running,[1]; mice affected/mice in group,6/10
same,Vulnerability to audiogenic seizure,"[1]; proportion of wild running mice, vehicle group 90%, 2 mg/kg",60%
same,Survival rate,[1]; survivors/mice in group,5/10
same,"Number of times the mouse crossed the center (open field, FIG. 2)",[2],significant increase in movement compared to the wild-type mice
same,Number of marbles buried (FIG. 3),[3],increased compared to that in the vehicle-administered group of Fmr1 gene knockout mice
same,"Freezing behavior (contextual fear conditioning, FIG. 1)",[4],significantly increased freezing behavior compared to the vehicle-administered group
